Several values for one entry are separate records, joined by “and”; a condition that tells them apart may be missing. Equal values may be shown once.
Test system: DBA1/J mice
Assay: Collagen type II induced arthritis, therapeutic treatment (Example 2)
Assay type: in vivo
Conditions: for Ankylosis score / Incidence of ankylosis (% of animals affected) / Incidence of arthritis (% of animals affected) / Mean Arthritic Score / Mean number of affected paws: treated day 30-49
Experimental: Male DBA1/J mice were immunized intradernally with collagen type II emulsified in complete Freund's Adjuvant on day 0 and day 21. Treatment of mice was started on day 30 (10 animals/treatment group; the animals were randomized so that both groups had similar arthritic symptoms at the start). Mice were treated orally with vehicle [DMSO: cremophor: 0.9% NaCl solution, 1:1:8 (v:v:v)] or compound 75 at a dose of 100 mg/kg. Three times per week symptoms of arthritis were scored. Animals were treated till day 49, at day 50 animals were sacrificed, blood was collected for analysis of anti-collagen antibodies, and […].
Trained lab personnel evaluated the severity and incidence of the arthritic symptoms at regular intervals without knowing which animals had received vehicle or drug.
In Table 14, the mean arthritic score is shown. For each paw, a score ranging from 0 (normal) to 2 (maximal redness and swelling) is given. The score for the 4 paws is summed up and averaged for the 10 animals per group (=Mean arthritic score).
Table 16 summarizes the results of the observations for the occurrence of ankylosis as the arthritis progresses. Each paw is scored as follows: 0 for no ankylosis, 1 for ankylosis. Again the results for the four paws are summed up and averaged for the 10 animals. Ankylosis starts to occur around day 30. During the whole treatment period, ankylosis is lower in the drug treated group than in the vehicle treated group.
In table 19, the radiographic score of the individual mice is depicted. For each paw, a score ranging from 0 (normal) to 2 (deformation of the whole paw was given. The scores of the four paws are summed up.

[1] = 100 mg/kg orally from day 30, versus vehicle
[2] = day 22 after immunization, 100 mpk orally
[3] = day 24 after immunization, 100 mpk orally
[4] = day 28 after immunization, 100 mpk orally
[5] = day 29 after immunization, 100 mpk orally
[6] = day 31 after immunization, 100 mpk orally
[7] = day 34 after immunization, 100 mpk orally
[8] = day 36 after immunization, 100 mpk orally
[9] = day 38 after immunization, 100 mpk orally
[10] = day 41 after immunization, 100 mpk orally
[11] = day 43 after immunization, 100 mpk orally
[12] = day 45 after immunization, 100 mpk orally
[13] = day 48 after immunization, 100 mpk orally
[14] = day 50 after immunization, 100 mpk orally

In the case of `Cn1cncc1C(N)(c1ccc(Cl)cc1)c1ccc2c(c1)c(-c1cccc(Cl)c1)cc(=O)n2C` (single isomer, unassigned; (+)) [Compound 75, (+)-6-[amino(4-chlorophenyl)(1-methyl-1H-imidazol-5-yl)methyl]-4-(3-chlorophenyl)-1-methyl-2(1H)-quinolinone], the “effect on mean arthritic score (in words)” value [1] is reported as “clearly suppresses the arthritic score”, the “effect on mean number of affected paws (in words)” value [1] is reported as “reduces that number” and the lethalities (100 mg/kg orally, day 30-49) is reported as “no lethalities were observed”. The signs of toxicity (100 mg/kg orally, day 30-49) was “did not show any signs of toxicity”, the “Radiographic score, Average” value (average of 10 mice, 100 mpk orally, treated day 30-49, radiographs at day 50) was 2.3 and the Ankylosis score [2] was 0.00. The “Incidence of ankylosis (% of animals affected)” value [2] was 0%, the “Incidence of arthritis (% of animals affected)” value [2] was 0% and the “Mean Arthritic Score” value [2] was 0.00. The “Mean number of affected paws” value [2] was 0.00, the Ankylosis score [3] was 0.00 and the “Incidence of ankylosis (% of animals affected)” value [3] was 0%. The “Incidence of arthritis (% of animals affected)” value [3] was 10%, the “Mean Arthritic Score” value [3] was 0.03 and the “Mean number of affected paws” value [3] was 0.10. The Ankylosis score [4] was 0.00, the “Incidence of ankylosis (% of animals affected)” value [4] was 0% and the “Incidence of arthritis (% of animals affected)” value [4] was 90%. For the same compound, the “Mean Arthritic Score” value [4] was 3.50, the “Mean number of affected paws” value [4] was 2.40 and the Ankylosis score [5] was 0.00. For the same compound, the “Incidence of ankylosis (% of animals affected)” value [5] was 0%, the “Incidence of arthritis (% of animals affected)” value [5] was 100% and the “Mean Arthritic Score” value [5] was 4.25. For the same compound, the “Mean number of affected paws” value [5] was 2.70, the Ankylosis score [6] was 0.80 and the “Incidence of ankylosis (% of animals affected)” value [6] was 60%. The “Incidence of arthritis (% of animals affected)” value [6] was 100%, the “Mean Arthritic Score” value [6] was 4.03 and the “Mean number of affected paws” value [6] was 2.80. The Ankylosis score [7] was 2.50, the “Incidence of ankylosis (% of animals affected)” value [7] was 90% and the “Incidence of arthritis (% of animals affected)” value [7] was 100%. The “Mean Arthritic Score” value [7] was 3.80, the “Mean number of affected paws” value [7] was 2.60 and the Ankylosis score [8] was 2.40. For the same compound, the “Incidence of ankylosis (% of animals affected)” value [8] was 90%, the “Incidence of arthritis (% of animals affected)” value [8] was 90% and the “Mean Arthritic Score” value [8] was 3.00. For the same compound, the “Mean number of affected paws” value [8] was 2.20, the Ankylosis score [9] was 2.60 and the “Incidence of ankylosis (% of animals affected)” value [9] was 100%. The “Incidence of arthritis (% of animals affected)” value [9] was 90%, the “Mean Arthritic Score” value [9] was 3.20 and the “Mean number of affected paws” value [9] was 2.60. For the same compound, the Ankylosis score [10] was 1.70, the “Incidence of ankylosis (% of animals affected)” value [10] was 70% and the “Incidence of arthritis (% of animals affected)” value [10] was 90%. The “Mean Arthritic Score” value [10] was 3.45, the “Mean number of affected paws” value [10] was 2.40 and the Ankylosis score [11] was 2.20. The “Incidence of ankylosis (% of animals affected)” value [11] was 80%, the “Incidence of arthritis (% of animals affected)” value [11] was 90% and the “Mean Arthritic Score” value [11] was 2.15. The “Mean number of affected paws” value [11] was 2.20, the Ankylosis score [12] was 1.90 and the “Incidence of ankylosis (% of animals affected)” value [12] was 80%. For the same compound, the “Incidence of arthritis (% of animals affected)” value [12] was 100%, the “Mean Arthritic Score” value [12] was 1.33 and the “Mean number of affected paws” value [12] was 1.90. The Ankylosis score [13] was 2.10, the “Incidence of ankylosis (% of animals affected)” value [13] was 90% and the “Incidence of arthritis (% of animals affected)” value [13] was 60%. The “Mean Arthritic Score” value [13] was 1.58, the “Mean number of affected paws” value [13] was 1.50 and the “Incidence of arthritis (% of animals affected)” value (day 50 after immunization (end of the treatment period), 100 mpk orally) was 60%. The Ankylosis score [14] was 0.80, the “Incidence of ankylosis (% of animals affected)” value [14] was 40% and the “Mean Arthritic Score” value [14] was 0.88. The “Mean number of affected paws” value [14] was 1.20, the “Radiographic score of individual mice” value (individual mouse, sum of four paws (0-2 each), 100 mpk orally, treated day 30-49, radiographs at day 50, 100 mg/kg) was 2.5 (2×) and 1.0 and 0.0 (2×) and 5.25 and 2.0 (2×) and 3.0 and 4.75 and the “Radiographic score, Median” value (median of 10 mice, 100 mpk orally, treated day 30-49, radiographs at day 50) was 2.25. The “arthritic symptoms (paw swelling, occurrence of ankylosis and deterioration of the joints as observed on radiographs)” value (oral administration to mice with established arthritis) was “reduces the arthritic symptoms”.
